Assay results: the supplement of paper PMC4862054

Tests used:
Experiment in all cases: normalised viability (% of control), CellTiter-Blue; higher = more viable cells (about 100 = DMSO control)
Conditions in all cases: incubation time: 72 h
DU-4475 [1] = system: DU-4475
Procedure, shortened: (§1)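 Breast cancer cell lines were treated for 72 h in 384-well format and measured by CellTiter-Blue fluorescence at 560/590 nm. Results were normalised per plate to vehicle (100) and a positive kill control (0). The entry is normalised viability at a single listed concentration of the series.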

CAL-148 [2] = system: CAL-148
Procedure, shortened: as §1

CAL-51 [3] = system: CAL-51
Procedure, shortened: as §1

MDA-MB-231 = system: MDA-MB-231
Procedure, shortened: as §1

HCC1599 [4] = system: HCC1599
Procedure, shortened: as §1

HCC1937 [5] = system: HCC1937
Procedure, shortened: as §1

BT-549 [6] = system: BT-549
Procedure, shortened: as §1

MFM-223 [7] = system: MFM-223
Procedure, shortened: as §1

HCC1143 [8] = system: HCC1143
Procedure, shortened: as §1

MDA-MB-436 [9] = system: MDA-MB-436
Procedure, shortened: as §1

CAL-120 = system: CAL-120
Procedure, shortened: as §1

DU-4475 [10] = system: DU-4475; remark: listed apart in the source
Procedure, shortened: as §1

CAL-148 [11] = system: CAL-148; remark: listed apart in the source
Procedure, shortened: as §1

CAL-51 [12] = system: CAL-51; remark: listed apart in the source
Procedure, shortened: as §1

HDQ-P1 = system: HDQ-P1
Procedure, shortened: as §1

HCC1599 [13] = system: HCC1599; remark: listed apart in the source
Procedure, shortened: as §1

HCC1937 [14] = system: HCC1937; remark: listed apart in the source
Procedure, shortened: as §1

BT-549 [15] = system: BT-549; remark: listed apart in the source
Procedure, shortened: as §1

Hs578T = system: Hs578T
Procedure, shortened: as §1

MFM-223 [16] = system: MFM-223; remark: listed apart in the source
Procedure, shortened: as §1

BT-474 = system: BT-474
Procedure, shortened: as §1

CAL-85-1 = system: CAL-85-1
Procedure, shortened: as §1

HCC1143 [17] = system: HCC1143; remark: listed apart in the source
Procedure, shortened: as §1

SK-BR-3 = system: SK-BR-3
Procedure, shortened: as §1

MDA-MB-453 = system: MDA-MB-453
Procedure, shortened: as §1

MDA-MB-436 [18] = system: MDA-MB-436; remark: listed apart in the source
Procedure, shortened: as §1

MDA-MB-468 = system: MDA-MB-468
Procedure, shortened: as §1

COC1=CC(c2cc3ccccc3[nH]2)=N/C1=C\c1[nH]c(C)cc1C [Obatoclax]
Conditions | normalised viability [%]
BT-474, 10 nM | 92.6
BT-474, 1000 nM | 36.1
BT-474, 10000 nM | 33.4
BT-549 [6], 100 nM | 62.9
BT-549 [15], 10 nM | 78.7
BT-549 [15], 1000 nM | 30.3
BT-549 [15], 10000 nM | 17.7
CAL-51 [3], 10 nM | 109
CAL-51 [12], 3 nM | 107
CAL-51 [12], 30 nM | 101
CAL-51 [12], 100 nM | 101
CAL-85-1, 3 nM | 81.2
CAL-85-1, 30 nM | 77.7
CAL-85-1, 100 nM | 79.5
CAL-120, 10 nM | 75.5
CAL-120, 1000 nM | 9.72
CAL-120, 10000 nM | 8.54
CAL-148 [2], 10 nM | 87.7
CAL-148 [11], 3 nM | 84.7
CAL-148 [11], 30 nM | 87.9
CAL-148 [11], 100 nM | 87.2
DU-4475 [1], 10 nM | 87.7
DU-4475 [10], 3 nM | 86.3
DU-4475 [10], 30 nM | 73.7
DU-4475 [10], 100 nM | 88.2
HCC1143 [8], 100 nM | 78
HCC1143 [17], 10 nM | 69
HCC1143 [17], 1000 nM | 47.1
HCC1143 [17], 10000 nM | 33.1
HCC1599 [4], 100 nM | 93.4
HCC1599 [13], 10 nM | 95.4
HCC1599 [13], 1000 nM | 64
HCC1599 [13], 10000 nM | 44.9
HCC1937 [5], 100 nM | 45.9
HCC1937 [14], 10 nM | 63
HCC1937 [14], 1000 nM | 21.4
HCC1937 [14], 10000 nM | 20
HDQ-P1, 3 nM | 85.3
HDQ-P1, 30 nM | 94.9
HDQ-P1, 100 nM | 68.8
Hs578T, 10 nM | 96.7
Hs578T, 1000 nM | 27.1
Hs578T, 10000 nM | 22.1
MDA-MB-231, 100 nM | 47.7
MDA-MB-436 [9], 100 nM | 58.7
MDA-MB-436 [18], 10 nM | 76.7
MDA-MB-436 [18], 1000 nM | 38.2
MDA-MB-436 [18], 10000 nM | 21.5
MDA-MB-453, 3 nM | 101
MDA-MB-453, 30 nM | 77.9
MDA-MB-453, 100 nM | 74.3
MDA-MB-468, 10 nM | 85
MDA-MB-468, 1000 nM | 29.5
MDA-MB-468, 10000 nM | 31.7
MFM-223 [7], 100 nM | 71.7
MFM-223 [16], 10 nM | 72.7
MFM-223 [16], 1000 nM | 54.4
MFM-223 [16], 10000 nM | 25.6
SK-BR-3, 10 nM | 80.2
SK-BR-3, 1000 nM | 27.1
SK-BR-3, 10000 nM | 21.2

CC(=O)O[C@H]1C(=O)[C@@]2(C)[C@H]([C@H](OC(=O)c3ccccc3)[C@]3(O)C[C@H](OC(=O)[C@H](O)[C@@H](NC(=O)c4ccccc4)c4ccccc4)C(C)=C1C3(C)C)[C@]1(OC(C)=O)CO[C@@H]1C[C@@H]2O [Paclitaxel]
Conditions | normalised viability [%]
BT-474, 1 nM | 106
BT-474, 100 nM | 25.2
BT-474, 1000 nM | 27.7
BT-549 [6], 10 nM | 31.9
BT-549 [15], 1 nM | 83.7
BT-549 [15], 100 nM | 21.1
BT-549 [15], 1000 nM | 20.4
CAL-51 [3], 1 nM | 91.8
CAL-51 [12], 0.3 nM | 95.1
CAL-51 [12], 3 nM | 82.9
CAL-51 [12], 10 nM | 57.9
CAL-85-1, 0.3 nM | 99.5
CAL-85-1, 3 nM | 76.9
CAL-85-1, 10 nM | 62.2
CAL-120, 1 nM | 89.7
CAL-120, 100 nM | 23.6
CAL-120, 1000 nM | 22.7
CAL-148 [2], 1 nM | 103
CAL-148 [11], 0.3 nM | 106
CAL-148 [11], 3 nM | 72.6
CAL-148 [11], 10 nM | 51.2
DU-4475 [1], 1 nM | 97.6
DU-4475 [10], 0.3 nM | 108
DU-4475 [10], 3 nM | 95.5
DU-4475 [10], 10 nM | 64.8
HCC1143 [8], 10 nM | 54.6
HCC1143 [17], 1 nM | 104
HCC1143 [17], 100 nM | 34.5
HCC1143 [17], 1000 nM | 32.5
HCC1599 [4], 10 nM | 104
HCC1599 [13], 1 nM | 113
HCC1599 [13], 100 nM | 86.7
HCC1599 [13], 1000 nM | 69.6
HCC1937 [5], 10 nM | 36.4
HCC1937 [14], 1 nM | 91.1
HCC1937 [14], 100 nM | 15.3
HCC1937 [14], 1000 nM | 19.7
HDQ-P1, 0.3 nM | 88.2
HDQ-P1, 3 nM | 55.6
HDQ-P1, 10 nM | 46.1
Hs578T, 1 nM | 110
Hs578T, 100 nM | 16.4
Hs578T, 1000 nM | 11.1
MDA-MB-231, 10 nM | 35.7
MDA-MB-436 [9], 10 nM | 52.2
MDA-MB-436 [18], 1 nM | 100
MDA-MB-436 [18], 100 nM | 50.5
MDA-MB-436 [18], 1000 nM | 42.2
MDA-MB-453, 0.3 nM | 87.7
MDA-MB-453, 3 nM | 63.2
MDA-MB-453, 10 nM | 43.5
MDA-MB-468, 1 nM | 93.5
MDA-MB-468, 100 nM | 47.2
MDA-MB-468, 1000 nM | 49.4
MFM-223 [7], 10 nM | 55.8
MFM-223 [16], 1 nM | 98.2
MFM-223 [16], 100 nM | 45.1
MFM-223 [16], 1000 nM | 51.7
SK-BR-3, 1 nM | 84.8
SK-BR-3, 100 nM | 13.9
SK-BR-3, 1000 nM | 12.9

CC(C)(C)c1cc(NC(=O)Nc2ccc(-c3cn4c(n3)sc3cc(OCCN5CCOCC5)ccc34)cc2)no1 [Quizartinib]
Conditions | normalised viability [%]
BT-474, 1 nM | 95.2
BT-474, 100 nM | 104
BT-474, 1000 nM | 96.6
BT-549 [6], 10 nM | 101
BT-549 [15], 1 nM | 89.4
BT-549 [15], 100 nM | 95.1
BT-549 [15], 1000 nM | 44
CAL-51 [3], 1 nM | 107
CAL-51 [12], 0.3 nM | 115
CAL-51 [12], 3 nM | 106
CAL-51 [12], 10 nM | 110
CAL-85-1, 0.3 nM | 96.9
CAL-85-1, 3 nM | 97.8
CAL-85-1, 10 nM | 105
CAL-120, 1 nM | 93.8
CAL-120, 100 nM | 96.6
CAL-120, 1000 nM | 96.6
CAL-148 [2], 1 nM | 100
CAL-148 [11], 0.3 nM | 98.1
CAL-148 [11], 3 nM | 102
CAL-148 [11], 10 nM | 96.2
DU-4475 [1], 1 nM | 109
DU-4475 [10], 0.3 nM | 95.8
DU-4475 [10], 3 nM | 98.6
DU-4475 [10], 10 nM | 93.3
HCC1143 [8], 10 nM | 95.2
HCC1143 [17], 1 nM | 94.3
HCC1143 [17], 100 nM | 95.8
HCC1143 [17], 1000 nM | 94.9
HCC1599 [4], 10 nM | 116
HCC1599 [13], 1 nM | 119
HCC1599 [13], 100 nM | 105
HCC1599 [13], 1000 nM | 63.6
HCC1937 [5], 10 nM | 81.7
HCC1937 [14], 1 nM | 59.2
HCC1937 [14], 100 nM | 81.8
HCC1937 [14], 1000 nM | 99.8
HDQ-P1, 0.3 nM | 94.2
HDQ-P1, 3 nM | 103
HDQ-P1, 10 nM | 98.8
Hs578T, 1 nM | 67.6
Hs578T, 100 nM | 119
Hs578T, 1000 nM | 93.2
MDA-MB-231, 10 nM | 91.3
MDA-MB-436 [9], 10 nM | 110
MDA-MB-436 [18], 1 nM | 104
MDA-MB-436 [18], 100 nM | 45.7
MDA-MB-436 [18], 1000 nM | 87.6
MDA-MB-453, 0.3 nM | 118
MDA-MB-453, 3 nM | 110
MDA-MB-453, 10 nM | 105
MDA-MB-468, 1 nM | 108
MDA-MB-468, 100 nM | 108
MDA-MB-468, 1000 nM | 86.1
MFM-223 [7], 10 nM | 86
MFM-223 [16], 1 nM | 86
MFM-223 [16], 100 nM | 86.4
MFM-223 [16], 1000 nM | 83.8
SK-BR-3, 1 nM | 88.4
SK-BR-3, 100 nM | 93.5
SK-BR-3, 1000 nM | 96.5
